Patent US20240158446A1, “CYCLIC COMPOUND HAVING SELECTIVE INHIBITORY ACTION ON KRAS OVER HRAS AND NRAS” (CHUGAI SEIYAKU KABUSHIKI KAISHA, priority 2021, published 2024)

Key:
[1] = molecular target: GDP-bound KRAS wild-type protein (Homo sapiens, UniProt P01116); experiment: Binding to KRAS by surface plasmon resonance (SPR), Single Cycle Kinetics; conditions: SPR, Single Cycle Kinetics, GDP-bound KRAS wild-type protein; read-out: KRAS KD
[2] = molecular target: GDP-bound HRAS wild-type protein (Homo sapiens, UniProt P01112); experiment: Binding to HRAS by surface plasmon resonance (SPR), Single Cycle Kinetics; conditions: ratio of KD for GDP-bound HRAS wild-type protein to KD for KRAS, SPR
Chain of GDP-bound HRAS wild-type protein (P01112 whole entry): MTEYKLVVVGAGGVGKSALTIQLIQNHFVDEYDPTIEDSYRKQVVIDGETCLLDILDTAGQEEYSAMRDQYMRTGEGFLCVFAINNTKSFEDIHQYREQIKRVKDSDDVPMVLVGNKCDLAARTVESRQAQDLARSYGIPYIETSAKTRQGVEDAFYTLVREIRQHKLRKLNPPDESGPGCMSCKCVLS

[3] = test system: human lung cancer strain NCI-H441; experiment: cells; conditions: NCI-H441, 96 h, read-out: NCI-H441 IC50 (nM), NCI-H441 cell proliferation, 4 days, CellTiter-Glo;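 note: cell proliferation inhibition after four days measured by CellTiter-Glo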
[4] = molecular target: GDP-bound NRAS wild-type protein (Homo sapiens, UniProt P01111); experiment: Binding to NRAS by surface plasmon resonance (SPR), Single Cycle Kinetics; conditions: ratio of KD for GDP-bound NRAS wild-type protein to KD for KRAS, SPR
Chain of GDP-bound NRAS wild-type protein (P01111 whole entry): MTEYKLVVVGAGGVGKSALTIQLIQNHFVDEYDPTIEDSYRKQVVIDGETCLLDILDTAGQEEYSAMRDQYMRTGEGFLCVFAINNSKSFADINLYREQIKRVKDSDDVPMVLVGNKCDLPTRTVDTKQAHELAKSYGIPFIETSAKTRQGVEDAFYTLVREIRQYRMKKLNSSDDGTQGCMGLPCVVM

Chain of GDP-bound KRAS wild-type protein (P01116 whole entry): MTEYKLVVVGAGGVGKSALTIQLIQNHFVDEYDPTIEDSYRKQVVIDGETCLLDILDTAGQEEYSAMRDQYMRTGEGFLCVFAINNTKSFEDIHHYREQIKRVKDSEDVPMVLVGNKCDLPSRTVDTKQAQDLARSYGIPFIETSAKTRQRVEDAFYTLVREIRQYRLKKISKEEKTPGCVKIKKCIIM

SMILES: CCO[C@@H]1C[C@H]2C(=O)NC3(CCC3)C(=O)N(C)[C@@H](C3CCCC3)C(=O)N(C)[C@H](C(=O)N(C)C)CC(=O)N(CC)[C@@H](CC(C)C)C(=O)N[C@@H]([C@@H](C)CC)C(=O)N(C)CC(=O)N(C)[C@H]3C/C=C\CCN(C3=O)[C@@H](Cc3ccc(C(F)(F)F)cc3)C(=O)N(C)CC(=O)N[C@@H](CCc3cc(F)c(C(F)(F)F)c(F)c3)C(=O)N2C1 [PP1765]
- Kd [1]: 0.084 nM
- HRAS/KRAS (KD ratio) [2]: A (a compound having 10 or more and less than 20 is denoted as A)
- IC50 [3]: 16.8 nM
- NRAS/KRAS (KD ratio) [4]: A (a compound having 10 or more and less than 20 is denoted as A)

SMILES: CCC[C@H]1C(=O)N[C@@H]([C@@H](C)CC)C(=O)N(CCC)CC(=O)N(C)[C@H]2C/C=C\CCN(C2=O)[C@@H](Cc2ccc(C(F)(F)F)cc2)C(=O)N(C)CC(=O)N[C@@H](CCc2cc(F)c(C(F)(F)F)c(F)c2)C(=O)N2C[C@H](OCC)C[C@H]2C(=O)NC2(CCC2)C(=O)N(C)[C@@H](C2CCCC2)C(=O)N(C)[C@H](C(=O)N(C)C)CC(=O)N1C [PP1767]
- Kd [1]: 0.34 nM
- HRAS/KRAS (KD ratio) [2]: B (a compound having 3 or more and less than 10 is denoted as B)
- IC50 [3]: 17.9 nM
- NRAS/KRAS (KD ratio) [4]: A (a compound having 10 or more and less than 20 is denoted as A)

SMILES: CCO[C@@H]1C[C@H]2C(=O)NC3(CC(C)(C)C3)C(=O)N(C)[C@@H](C3CCCC3)C(=O)N(CC)[C@H](C(=O)N(C)C)CC(=O)N(C)[C@@H](CC)C(=O)N[C@@H]([C@@H](C)CC)C(=O)N(C)CC(=O)N(C)[C@H]3C/C=C\CCN(C3=O)[C@@H](Cc3ccc(C(F)(F)F)cc3)C(=O)N(C)CC(=O)N[C@@H](CCc3cc(F)c(C(F)(F)F)c(F)c3)C(=O)N2C1 [PP1768]
- Kd [1]: 0.32 nM
- HRAS/KRAS (KD ratio) [2]: A (a compound having 10 or more and less than 20 is denoted as A)
- IC50 [3]: 4.9 nM
- NRAS/KRAS (KD ratio) [4]: A (a compound having 10 or more and less than 20 is denoted as A)

SMILES: CCC[C@H]1C(=O)N[C@@H]([C@@H](C)CC)C(=O)N(C)CC(=O)N(C)[C@H]2C/C=C\CCN(C2=O)[C@@H](Cc2ccc(C(F)(F)F)cc2)C(=O)N(C)CC(=O)N[C@@H](CCc2cc(F)c(C(F)(F)F)c(F)c2)C(=O)N2C[C@H](OCC)C[C@H]2C(=O)NC2(CCC2)C(=O)N(C)[C@@H](C2CCCC2)C(=O)N(CCC)[C@H](C(=O)N(C)C)CC(=O)N1C [PP1769]
- Kd [1]: 0.78 nM
- HRAS/KRAS (KD ratio) [2]: A (a compound having 10 or more and less than 20 is denoted as A)
- IC50 [3]: 12.9 nM
- NRAS/KRAS (KD ratio) [4]: A (a compound having 10 or more and less than 20 is denoted as A)

SMILES: CCO[C@@H]1C[C@H]2C(=O)NC3(CC(C)(C)C3)C(=O)N(C)[C@@H](C3CCCC3)C(=O)N(C)[C@H](C(=O)N(C)CC)CC(=O)N(C)[C@@H](CC(C)C)C(=O)N[C@@H]([C@@H](C)CC)C(=O)NCC(=O)N(C)[C@H]3C/C=C\CCN(C3=O)[C@@H](Cc3ccc(C(F)(F)F)cc3)C(=O)N(C)CC(=O)N[C@@H](CCc3cc(F)c(C(F)(F)F)c(F)c3)C(=O)N2C1 [PP1771]
- Kd [1]: 0.097 nM
- HRAS/KRAS (KD ratio) [2]: A (a compound having 10 or more and less than 20 is denoted as A)
- IC50 [3]: 6.6 nM
- NRAS/KRAS (KD ratio) [4]: A (a compound having 10 or more and less than 20 is denoted as A)

SMILES: CCO[C@@H]1C[C@H]2C(=O)NC3(CC(C)(C)C3)C(=O)N(C)[C@@H](C3CCCC3)C(=O)N(C)[C@H](C(=O)N(C)C)CC(=O)N(CC)[C@@H](CC(C)C)C(=O)N[C@@H]([C@@H](C)CC)C(=O)NCC(=O)N(C)[C@H]3C/C=C\CCN(C3=O)[C@@H](Cc3ccc(C(F)(F)F)cc3)C(=O)N(C)CC(=O)N[C@@H](CCc3cc(F)c(C(F)(F)F)c(F)c3)C(=O)N2C1 [PP1772]
- Kd [1]: 0.23 nM
- HRAS/KRAS (KD ratio) [2]: B (a compound having 3 or more and less than 10 is denoted as B)
- IC50 [3]: 13.4 nM
- NRAS/KRAS (KD ratio) [4]: B (a compound having 3 or more and less than 10 is denoted as B)
